Measurements published in ChEMBL document CHEMBL4011590, “Structure-activity relationship studies on 3,5-dinitrophenyl tetrazoles as antitubercular agents” (Eur J Med Chem, 2017).
≈ marks a conversion by molar mass, not a printed value.

Legend:
Format in all cases: functional
[1] = system: Mycobacterium tuberculosis; experiment: Antimycobacterial activity against clinical isolates of multidrug resistant/extensively drug resistant Mycobacterium tuberculosis Praha 1 after 14 days by micromethod; settings: Praha 1, 336 h
[2] = system: Mycobacterium tuberculosis; experiment: Antimycobacterial activity against clinical isolates of multidrug resistant/extensively drug resistant Mycobacterium tuberculosis Praha 1 after 21 days by micromethod; settings: Praha 1, 504 h
[3] = system: Mycobacterium tuberculosis; experiment: Antimycobacterial activity against clinical isolates of multidrug resistant/extensively drug resistant Mycobacterium tuberculosis Praha 4 after 14 days by micromethod; settings: Praha 4, 336 h
[4] = system: Mycobacterium tuberculosis; experiment: Antimycobacterial activity against clinical isolates of multidrug resistant/extensively drug resistant Mycobacterium tuberculosis Praha 4 after 21 days by micromethod; settings: Praha 4, 504 h
[5] = system: Mycobacterium tuberculosis; experiment: Antimycobacterial activity against clinical isolates of multidrug resistant/extensively drug resistant Mycobacterium tuberculosis Praha 131 after 14 days by micromethod; settings: Praha 131, 336 h
[6] = system: Mycobacterium tuberculosis; experiment: Antimycobacterial activity against clinical isolates of multidrug resistant/extensively drug resistant Mycobacterium tuberculosis Praha 131 after 21 days by micromethod; settings: Praha 131, 504 h
[7] = system: Mycobacterium tuberculosis; experiment: Antimycobacterial activity against clinical isolates of multidrug resistant/extensively drug resistant Mycobacterium tuberculosis 9449/2007 after 14 days by micromethod; settings: 9449/2007, 336 h
[8] = system: Mycobacterium tuberculosis; experiment: Antimycobacterial activity against clinical isolates of multidrug resistant/extensively drug resistant Mycobacterium tuberculosis 9449/2007 after 21 days by micromethod; settings: 9449/2007, 504 h
[9] = system: Mycobacterium tuberculosis; experiment: Antimycobacterial activity against clinical isolates of multidrug resistant/extensively drug resistant Mycobacterium tuberculosis 234/2005 after 14 days by micromethod; settings: 234/2005, 336 h
[10] = system: Mycobacterium tuberculosis; experiment: Antimycobacterial activity against clinical isolates of multidrug resistant/extensively drug resistant Mycobacterium tuberculosis 234/2005 after 21 days by micromethod; settings: 234/2005, 504 h
[11] = system: Mycobacterium tuberculosis; experiment: Antimycobacterial activity against clinical isolates of multidrug resistant/extensively drug resistant Mycobacterium tuberculosis 7357/1998 after 14 days by micromethod; settings: 7357/1998, 336 h
[12] = system: Mycobacterium tuberculosis; experiment: Antimycobacterial activity against clinical isolates of multidrug resistant/extensively drug resistant Mycobacterium tuberculosis 7357/1998 after 21 days by micromethod; settings: 7357/1998, 504 h
[13] = system: Mycobacterium tuberculosis; experiment: Antimycobacterial activity against clinical isolates of multidrug resistant/extensively drug resistant Mycobacterium tuberculosis 8666/2010 after 14 days by micromethod; settings: 8666/2010, 336 h
[14] = system: Mycobacterium tuberculosis; experiment: Antimycobacterial activity against clinical isolates of multidrug resistant/extensively drug resistant Mycobacterium tuberculosis 8666/2010 after 21 days by micromethod; settings: 8666/2010, 504 h

SMILES: O=[N+]([O-])c1cc(-c2nnn(CCCSc3nnnn3-c3ccc(Br)cc3)n2)cc([N+](=O)[O-])c1
- MIC [1]: 0.25 µM (≈ 0.133 µg/mL)
- MIC [2]: 0.25 µM (≈ 0.133 µg/mL)
- MIC [3]: 0.25 µM (≈ 0.133 µg/mL)
- MIC [4]: 0.25 µM (≈ 0.133 µg/mL)
- MIC [5]: 0.25 µM (≈ 0.133 µg/mL)
- MIC [6]: 0.25 µM (≈ 0.133 µg/mL)
- MIC [7]: 0.25 µM (≈ 0.133 µg/mL)
- MIC [8]: 0.25 µM (≈ 0.133 µg/mL)
- MIC [9]: 0.25 µM (≈ 0.133 µg/mL)
- MIC [10]: 0.25 µM (≈ 0.133 µg/mL)
- MIC [11]: 0.25 µM (≈ 0.133 µg/mL)
- MIC [12]: 0.25 µM (≈ 0.133 µg/mL)

SMILES: Cc1ccc(Cn2nnc(-c3cc([N+](=O)[O-])cc([N+](=O)[O-])c3)n2)cc1
- MIC [1]: 0.12 µM (≈ 0.0408 µg/mL)
- MIC [2]: 0.25 µM (≈ 0.0851 µg/mL)
- MIC [3]: 0.12 µM (≈ 0.0408 µg/mL)
- MIC [4]: 0.12 µM (≈ 0.0408 µg/mL)
- MIC [5]: 0.12 µM (≈ 0.0408 µg/mL)
- MIC [6]: 0.12 µM (≈ 0.0408 µg/mL)
- MIC [7]: 0.12 µM (≈ 0.0408 µg/mL)
- MIC [8]: 0.12 µM (≈ 0.0408 µg/mL)
- MIC [9]: 0.12 µM (≈ 0.0408 µg/mL)
- MIC [10]: 0.12 µM (≈ 0.0408 µg/mL)
- MIC [11]: 0.12 µM (≈ 0.0408 µg/mL)
- MIC [12]: 0.12 µM (≈ 0.0408 µg/mL)
- MIC [13]: 0.12 µM (≈ 0.0408 µg/mL)
- MIC [14]: 0.12 µM (≈ 0.0408 µg/mL)

SMILES: COc1cccc(-n2nnnc2SCn2nnc(-c3cc([N+](=O)[O-])cc([N+](=O)[O-])c3)n2)c1
- MIC [1]: 0.03 µM (≈ 0.0137 µg/mL)
- MIC [2]: 0.03 µM (≈ 0.0137 µg/mL)
- MIC [3]: 0.03 µM (≈ 0.0137 µg/mL)
- MIC [4]: 0.03 µM (≈ 0.0137 µg/mL)
- MIC [5]: 0.03 µM (≈ 0.0137 µg/mL)
- MIC [6]: 0.03 µM (≈ 0.0137 µg/mL)
- MIC [7]: 0.03 µM (≈ 0.0137 µg/mL)
- MIC [8]: 0.06 µM (≈ 0.0274 µg/mL)
- MIC [9]: 0.03 µM (≈ 0.0137 µg/mL)
- MIC [10]: 0.03 µM (≈ 0.0137 µg/mL)
- MIC [11]: 0.03 µM (≈ 0.0137 µg/mL)
- MIC [12]: 0.03 µM (≈ 0.0137 µg/mL)

SMILES: O=[N+]([O-])c1cc(-c2nnn(Cc3ccc(F)cc3)n2)cc([N+](=O)[O-])c1
- MIC [1]: 1 µM (≈ 0.344 µg/mL)
- MIC [2]: 1 µM (≈ 0.344 µg/mL)
- MIC [3]: 0.5 µM (≈ 0.172 µg/mL)
- MIC [4]: 1 µM (≈ 0.344 µg/mL)
- MIC [5]: 0.5 µM (≈ 0.172 µg/mL)
- MIC [6]: 1 µM (≈ 0.344 µg/mL)
- MIC [7]: 0.25 µM (≈ 0.0861 µg/mL)
- MIC [8]: 0.5 µM (≈ 0.172 µg/mL)
- MIC [9]: 0.5 µM (≈ 0.172 µg/mL)
- MIC [10]: 1 µM (≈ 0.344 µg/mL)
- MIC [11]: 0.5 µM (≈ 0.172 µg/mL)
- MIC [12]: 0.5 µM (≈ 0.172 µg/mL)
- MIC [13]: 0.5 µM (≈ 0.172 µg/mL)
- MIC [14]: 0.5 µM (≈ 0.172 µg/mL)

SMILES: O=[N+]([O-])c1cc(-c2nnn(CCCCSc3nnnn3-c3ccc(Br)cc3)n2)cc([N+](=O)[O-])c1
- MIC [1]: 0.25 µM (≈ 0.137 µg/mL)
- MIC [2]: 0.25 µM (≈ 0.137 µg/mL)
- MIC [3]: 0.25 µM (≈ 0.137 µg/mL)
- MIC [4]: 0.25 µM (≈ 0.137 µg/mL)
- MIC [5]: 0.25 µM (≈ 0.137 µg/mL)
- MIC [6]: 0.25 µM (≈ 0.137 µg/mL)
- MIC [7]: 0.25 µM (≈ 0.137 µg/mL)
- MIC [8]: 0.5 µM (≈ 0.274 µg/mL)
- MIC [9]: 0.25 µM (≈ 0.137 µg/mL)
- MIC [10]: 0.25 µM (≈ 0.137 µg/mL)
- MIC [11]: 0.25 µM (≈ 0.137 µg/mL)
- MIC [12]: 0.25 µM (≈ 0.137 µg/mL)

SMILES: COc1ccc(Cn2nnc(-c3cc([N+](=O)[O-])cc([N+](=O)[O-])c3)n2)cc1
- MIC [1]: 0.03 µM (≈ 0.0107 µg/mL)
- MIC [2]: 0.03 µM (≈ 0.0107 µg/mL)
- MIC [3]: 0.03 µM (≈ 0.0107 µg/mL)
- MIC [4]: 0.03 µM (≈ 0.0107 µg/mL)
- MIC [5]: 0.03 µM (≈ 0.0107 µg/mL)
- MIC [6]: 0.03 µM (≈ 0.0107 µg/mL)
- MIC [7]: 0.03 µM (≈ 0.0107 µg/mL)
- MIC [8]: 0.03 µM (≈ 0.0107 µg/mL)
- MIC [9]: 0.03 µM (≈ 0.0107 µg/mL)
- MIC [10]: 0.06 µM (≈ 0.0214 µg/mL)
- MIC [11]: 0.03 µM (≈ 0.0107 µg/mL)
- MIC [12]: 0.03 µM (≈ 0.0107 µg/mL)
- MIC [13]: 0.03 µM (≈ 0.0107 µg/mL)
- MIC [14]: 0.03 µM (≈ 0.0107 µg/mL)
